Measured values reported in article PMC6355801, “The compound TB47 is highly bactericidal against Mycobacterium ulcerans in a Buruli ulcer mouse model” (Nature Communications, 2019).
In brackets after ≈: the same amount, converted by molar mass. Like-named read-outs stand apart in the source and are kept apart here.

Tests used:
M. smegmatis = experiment: microbe, parasite or virus in culture; format: cell-based, Mycobacterium smegmatis
M. marinum = format: cell-based, Mycobacterium marinum
M. ulcerans = format: cell-based, Mycobacterium ulcerans
M. ulcerans (AlMu) = experiment: Time kill assay and CFU-based MBC in liquid culture; format: cell-based, Mycobacterium ulcerans
Experimental: Serial dilutions of drug-containing solutions and autoluminescent mycobacteria broth culture (OD600 of 0.3 to 1.0) were prepared. RLU counts from the same batch of triplicate samples were measured according to the designed time points. Ninety-six-well plates were measured as rendering the amount of light by using a Veritas™ Microplate Luminometer Operating Manual (Turner BioSystems). MIClux was determined as the lowest concentration that can inhibit > 90% RLUs compared with that from the untreated controls[6],[18]. The time-killing curves and MIClux of autoluminescent strains were determined by detecting RLUs from these samples. For M. ulcerans and M. marinum strains, the incubation time for MIClux reading was 7 days and 3 days, respectively. The minimum bactericidal concentration (MBC) was defined as the lowest concentration of drug that killed ≥ 99% of the CFU compared with the CFU count of the initial inoculum used for the liquid activity assays, which was adopted from reference. […] The concentrations used were twofold series of dilutions for this purpose. The incubation time for RLU reading was 14 days for the MBD experiment and the light from each 1.5 mL tube containing total 500 μL culture was detected using Promega GloMax 20/20n. […] The concentrations used were fivefold series of dilutions for this purpose. Each above experiment was performed in triplicate (three independent experiments) or more by independent persons and from three or more independent cultures. The representative results are shown.

[1] = format: in vitro ADME, Mouse
Excerpt: (§1) Supplement 41467_2019_8464_MOESM1_ESM.docx, table 4: Table 2-3 Metabolic stability | column: T1/2 (min); Clint In Vitro (mL min^-1 gprot^-1); Clint In Vivo Extpl (mL min^-1); Clint Hep In Vivo Extpl (mL min^-1); Stability

CYP 3A4 = CYP 3A4 (Homo sapiens, UniProt P08684); details: read-out: CYP Inhibition (IC50)
CYP 2C19 = CYP 2C19 (Homo sapiens, UniProt P33261); format: in vitro ADME; details: read-out: CYP Inhibition (IC50)
Salmonella enteriditis = experiment: MIC, standard broth dilution assay (CLSI); format: cell-based; details: 1 clinical isolate
Mycobacterium abscessus = experiment: MIC, standard broth dilution assay (CLSI); format: cell-based; details: 20 clinical isolates
[2] = not told
Acinetobacter baumannii = experiment: MIC, standard broth dilution assay (CLSI); format: cell-based; details: 3 clinical isolates
Candida albicans = experiment: MIC, standard broth dilution assay (CLSI); format: cell-based; details: 2 clinical isolates
[3] = Oral tolerability in mice; format: in vivo
Pseudomonas aeruginosa = experiment: MIC, standard broth dilution assay (CLSI); format: cell-based; details: 3 clinical isolates
[4] = Long-term administration study in rats; format: in vivo; details: 10, 30, or 100 mg kg^−1 orally daily for 30 days, male and female rats
Staphylococcus aureus = experiment: MIC, standard broth dilution assay (CLSI); format: cell-based; details: 1 clinical isolate
[5] = format: in vitro ADME, Monkey
Excerpt: as §1

Enterococcus faecalis = experiment: MIC, standard broth dilution assay (CLSI); format: cell-based; details: 1 clinical isolate
[6] = system: M. ulcerans strains 1059 and 1615; experiment: MIC on 7H11 agar plates; format: cell-based; details: Mycobacterium ulcerans, 2 strains (1059 and 1615)
Klebsiella pneumoniae = experiment: MIC, standard broth dilution assay (CLSI); format: cell-based; details: 3 clinical isolates
THP-1 cell = experiment: Cytotoxicity; format: cell-based
[7] = system: Mycobacterium bovis BCG Tice; format: cell-based; details: 1 strain
[8] = format: in vitro ADME, Human
Excerpt: as §1

CYP 1A2 = CYP 1A2 (Homo sapiens, UniProt P05177); experiment: CYP inhibition; format: in vitro ADME
hERG = hERG (Homo sapiens, UniProt Q12809); experiment: hERG inhibition; format: biochemical
Escherichia coli = experiment: MIC, standard broth dilution assay (CLSI); format: cell-based; details: 5 clinical isolates
Enterococcus faecium = experiment: MIC, standard broth dilution assay (CLSI); format: cell-based; details: 1 clinical isolate
[9] = system: most of the clinical strains; experiment: MIC, standard broth dilution assay (CLSI), summary for clinical strains; format: cell-based
CYP 2D6 = CYP 2D6 (Homo sapiens, UniProt P10635); format: in vitro ADME; details: read-out: CYP Inhibition (IC50)
[10] = design: species or system BALB/c mice; details: mouse, in vivo
Experimental: BALB/c mice were given 2 mg kg^−1 TB47 intravenously or 10 mg kg^−1 orally. […] Footpads and lung tissues were collected at 6, 12, 24, and 48 h post-dose for oral group. After extraction and centrifuge at 4 °C, TB47 concentrations were determined by Liquid Chromatograph-Mass Spectrometer (LC-MS).

[11] = format: in vitro ADME, Dog
Excerpt: as §1

[12] = format: in vitro ADME, Rat
Excerpt: as §1

CYP 2C9 = CYP 2C9 (Homo sapiens, UniProt P11712); experiment: CYP inhibition; format: in vitro ADME
Sequence of CYP 2C9 (P11712 whole entry): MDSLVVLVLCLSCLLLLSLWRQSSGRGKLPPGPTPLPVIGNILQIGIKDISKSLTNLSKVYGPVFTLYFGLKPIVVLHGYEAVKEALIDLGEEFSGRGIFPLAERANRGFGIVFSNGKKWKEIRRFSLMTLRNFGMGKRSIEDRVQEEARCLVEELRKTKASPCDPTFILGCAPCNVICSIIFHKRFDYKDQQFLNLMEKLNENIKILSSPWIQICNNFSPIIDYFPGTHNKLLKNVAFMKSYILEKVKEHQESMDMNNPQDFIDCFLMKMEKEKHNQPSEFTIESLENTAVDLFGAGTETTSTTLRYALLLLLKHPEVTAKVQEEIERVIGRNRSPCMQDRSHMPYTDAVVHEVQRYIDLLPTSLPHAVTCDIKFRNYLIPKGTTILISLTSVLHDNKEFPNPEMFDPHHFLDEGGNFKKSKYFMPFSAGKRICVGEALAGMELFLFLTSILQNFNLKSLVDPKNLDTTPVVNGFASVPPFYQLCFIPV

Sequence of CYP 3A4 (P08684 whole entry): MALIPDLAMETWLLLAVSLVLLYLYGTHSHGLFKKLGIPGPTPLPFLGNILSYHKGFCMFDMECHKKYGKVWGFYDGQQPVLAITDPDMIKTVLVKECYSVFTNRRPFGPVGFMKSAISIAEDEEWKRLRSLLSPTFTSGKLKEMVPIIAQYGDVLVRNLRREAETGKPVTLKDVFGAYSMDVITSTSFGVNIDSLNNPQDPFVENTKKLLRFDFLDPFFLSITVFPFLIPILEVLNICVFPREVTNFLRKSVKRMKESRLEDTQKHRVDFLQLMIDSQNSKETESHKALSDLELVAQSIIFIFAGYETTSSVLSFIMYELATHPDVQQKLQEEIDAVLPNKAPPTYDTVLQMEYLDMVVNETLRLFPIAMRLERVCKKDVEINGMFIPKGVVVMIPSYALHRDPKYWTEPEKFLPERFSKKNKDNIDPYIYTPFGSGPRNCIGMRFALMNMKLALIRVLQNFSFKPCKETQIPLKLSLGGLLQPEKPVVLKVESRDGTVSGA
Sequence of hERG (Q12809 whole entry): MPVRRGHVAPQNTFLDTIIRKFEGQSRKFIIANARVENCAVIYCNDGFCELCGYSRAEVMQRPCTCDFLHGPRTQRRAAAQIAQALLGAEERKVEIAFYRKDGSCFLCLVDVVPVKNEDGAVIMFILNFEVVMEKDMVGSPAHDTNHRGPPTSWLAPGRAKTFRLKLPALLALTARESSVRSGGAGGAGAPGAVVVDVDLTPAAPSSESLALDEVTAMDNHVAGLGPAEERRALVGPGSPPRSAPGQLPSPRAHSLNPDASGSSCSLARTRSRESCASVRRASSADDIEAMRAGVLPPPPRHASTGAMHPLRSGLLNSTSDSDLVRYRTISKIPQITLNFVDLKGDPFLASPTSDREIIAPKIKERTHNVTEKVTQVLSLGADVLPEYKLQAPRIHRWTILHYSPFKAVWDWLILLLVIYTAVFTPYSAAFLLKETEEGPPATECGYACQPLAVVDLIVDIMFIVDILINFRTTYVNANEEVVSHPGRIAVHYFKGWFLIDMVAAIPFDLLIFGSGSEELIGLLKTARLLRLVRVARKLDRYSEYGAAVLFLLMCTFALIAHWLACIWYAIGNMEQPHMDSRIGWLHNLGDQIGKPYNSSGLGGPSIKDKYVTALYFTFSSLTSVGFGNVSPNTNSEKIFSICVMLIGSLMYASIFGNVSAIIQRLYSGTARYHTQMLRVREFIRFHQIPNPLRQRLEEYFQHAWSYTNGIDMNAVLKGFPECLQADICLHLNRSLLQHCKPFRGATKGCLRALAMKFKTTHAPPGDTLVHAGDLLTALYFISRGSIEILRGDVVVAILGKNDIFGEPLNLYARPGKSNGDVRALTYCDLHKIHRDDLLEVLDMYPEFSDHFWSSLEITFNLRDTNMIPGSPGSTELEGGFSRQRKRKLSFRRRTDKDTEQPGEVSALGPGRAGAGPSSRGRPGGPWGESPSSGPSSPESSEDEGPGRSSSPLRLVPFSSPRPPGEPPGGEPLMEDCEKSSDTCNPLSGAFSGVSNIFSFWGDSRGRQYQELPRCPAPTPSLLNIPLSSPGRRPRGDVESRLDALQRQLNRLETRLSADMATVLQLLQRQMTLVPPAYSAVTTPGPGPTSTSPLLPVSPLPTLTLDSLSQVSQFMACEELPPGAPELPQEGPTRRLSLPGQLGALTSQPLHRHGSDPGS
Sequence of CYP 1A2 (P05177 whole entry): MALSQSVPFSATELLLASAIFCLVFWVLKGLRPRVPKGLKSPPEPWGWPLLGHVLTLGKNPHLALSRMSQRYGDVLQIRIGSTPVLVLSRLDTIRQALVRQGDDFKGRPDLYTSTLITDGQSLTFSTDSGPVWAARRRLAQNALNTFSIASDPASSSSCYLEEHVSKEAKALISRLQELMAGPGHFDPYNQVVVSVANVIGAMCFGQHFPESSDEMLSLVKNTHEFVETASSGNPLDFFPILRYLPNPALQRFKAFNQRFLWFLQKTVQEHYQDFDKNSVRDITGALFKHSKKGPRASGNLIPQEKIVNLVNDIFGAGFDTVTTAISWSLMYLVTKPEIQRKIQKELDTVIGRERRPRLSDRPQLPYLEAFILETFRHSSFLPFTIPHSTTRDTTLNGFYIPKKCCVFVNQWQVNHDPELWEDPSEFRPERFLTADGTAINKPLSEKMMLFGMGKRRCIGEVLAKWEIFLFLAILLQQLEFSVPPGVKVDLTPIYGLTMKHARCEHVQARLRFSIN
Sequence of CYP 2D6 (P10635 whole entry): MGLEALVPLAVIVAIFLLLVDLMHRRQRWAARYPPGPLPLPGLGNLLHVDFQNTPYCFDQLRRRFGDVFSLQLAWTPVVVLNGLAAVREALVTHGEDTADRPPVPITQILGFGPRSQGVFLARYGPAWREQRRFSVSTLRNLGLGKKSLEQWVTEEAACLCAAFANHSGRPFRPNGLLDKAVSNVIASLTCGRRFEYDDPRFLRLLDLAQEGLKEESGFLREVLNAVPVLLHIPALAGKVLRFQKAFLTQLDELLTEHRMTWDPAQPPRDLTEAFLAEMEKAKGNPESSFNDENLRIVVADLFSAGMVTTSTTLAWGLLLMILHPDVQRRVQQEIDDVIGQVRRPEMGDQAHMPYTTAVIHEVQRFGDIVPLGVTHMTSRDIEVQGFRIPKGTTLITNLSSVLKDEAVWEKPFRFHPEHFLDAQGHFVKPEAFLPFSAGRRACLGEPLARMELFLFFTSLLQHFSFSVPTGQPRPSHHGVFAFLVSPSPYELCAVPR
Sequence of CYP 2C19 (P33261 whole entry): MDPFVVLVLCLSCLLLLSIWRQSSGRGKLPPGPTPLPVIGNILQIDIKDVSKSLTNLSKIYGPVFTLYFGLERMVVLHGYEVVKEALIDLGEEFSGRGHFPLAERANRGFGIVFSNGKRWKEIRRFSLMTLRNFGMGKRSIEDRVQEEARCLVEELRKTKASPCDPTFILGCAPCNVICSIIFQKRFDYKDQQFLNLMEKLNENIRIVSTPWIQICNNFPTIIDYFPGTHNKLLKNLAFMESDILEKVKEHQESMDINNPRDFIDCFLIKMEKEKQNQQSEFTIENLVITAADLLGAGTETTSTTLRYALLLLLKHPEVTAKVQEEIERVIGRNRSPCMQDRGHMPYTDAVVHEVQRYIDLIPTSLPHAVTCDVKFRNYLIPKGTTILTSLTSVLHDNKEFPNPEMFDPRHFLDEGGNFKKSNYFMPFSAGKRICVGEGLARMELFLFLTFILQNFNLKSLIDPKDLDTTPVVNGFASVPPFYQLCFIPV

## NNC(=O)c1ccncc1 [isoniazid]
M. smegmatis; MsmΔcydAB
  MIC: 4 µg/mL (≈ 29.2 µM)
M. smegmatis; MsmΔcydAB::cydAB^Mtb
  MIC: 4 µg/mL (≈ 29.2 µM)
M. smegmatis; MsmΔcydAB::cydAB^Mu
  MIC: 4 µg/mL (≈ 29.2 µM)
M. smegmatis; Mycolicibacterium smegmatis
  MIC: 4 µg/mL (≈ 29.2 µM)

## CO[C@H]1/C=C/O[C@@]2(C)Oc3c(C)c(O)c4c(O)c(c(/C=N/N5CCN(C)CC5)c(O)c4c3C2=O)NC(=O)/C(C)=C\C=C\[C@H](C)[C@H](O)[C@@H](C)[C@@H](O)[C@@H](C)[C@H](OC(C)=O)[C@@H]1C [RIF, rifampin]
M. marinum; M. marinum Wild-type (Autoluminescent strain)
  MIClux: 0.25 to 1.0 µg/mL
M. marinum; M. marinum Wild-type:: qcrB^WT, over-expression of wild-type qcrB
  MIClux: 0.25 to 1.0 µg/mL
M. marinum; M. marinum Wild-type:: vector (empty plasmid)
  MIClux: 0.25 to 1.0 µg/mL
M. ulcerans; M. ulcerans Wild-type (AlMu 1059)
  MIClux: 0.06 to 0.25 µg/mL
M. ulcerans; M. ulcerans Wild-type:: qcrB^WT, over-expression of wild-type qcrB
  MIClux: 0.06 to 0.25 µg/mL
M. ulcerans; M. ulcerans Wild-type:: vector (empty plasmid)
  MIClux: 0.06 to 0.25 µg/mL

## COc1ccn2nc(C)c(C(=O)NCc3ccc(N4CCC(c5ccc(OC(F)(F)F)cc5)CC4)cc3)c2c1 [TB47]
M. ulcerans (AlMu); TB47 at 0.008 µg mL^−1 or higher, time kill assay
  bactericidal activity compared with 0.2 µg mL^−1 rifampin: more potent
M. ulcerans (AlMu); killed ≥ 99% of CFU of the initial inoculum
  minimum bactericidal concentration (MBC): 0.0064 µg/mL (≈ 0.0119 µM)
M. ulcerans (AlMu); standard time kill assay, AlMu in liquid culture
  concentration demonstrating bactericidal activity: ≥ 0.0016 µg/mL
[1]
  Stability: High
[1]; mouse
  Clint Hep In Vivo Extpl: 0.8 mL/min
  Clint In Vitro: 16.5 mL min^-1 gprot^-1
  Clint In Vivo Extpl: 1.1 mL/min
  T1/2: 2.12 h
CYP 3A4; 3A4-Midazolam
  IC50: > 10 µM
CYP 3A4; 3A4-Testerone
  IC50: > 10 µM
CYP 2C19
  IC50: > 10 µM
M. marinum; Mycobacterium marinum, 1 strain
  MIC: 0.001 to 0.008 µg/mL
Salmonella enteriditis
  MIC: >128 µg/mL
Mycobacterium abscessus
  MIC: >128 µg/mL
[2]
  Conclusion: P-gp substrate: Not P-gp substrate
  Conclusion: permeability: High permeability
  Efflux Ratio: 1.07
Acinetobacter baumannii
  MIC: >128 µg/mL
VERO cell
  IC50: > 100 µM
Candida albicans
  MIC: >128 µg/mL
M. smegmatis; Mycobacterium smegmatis, 1 strain
  MIC: 50 µg/mL (≈ 92.8 µM)
[3]; oral 200 mg kg^−1 daily for 4 weeks, mice
  tolerability: well tolerated
[3]; single oral administration of 2000 mg kg^−1, mice
  tolerability: well tolerated
Pseudomonas aeruginosa
  MIC: >128 µg/mL
[4]
  tolerability: well tolerated without any meaningful clinical signs of toxicity
Staphylococcus aureus
  MIC: >128 µg/mL
[5]
  Stability: High
[5]; monkey
  Clint Hep In Vivo Extpl: 0.1 mL/min
  Clint In Vitro: 0.0 mL min^-1 gprot^-1
  Clint In Vivo Extpl: 0.1 mL/min
  T1/2: 1555 h
Enterococcus faecalis
  MIC: >128 µg/mL
[6]
  MIC: 0.0016 µg/mL (≈ 0.00297 µM)
Klebsiella pneumoniae
  MIC: >128 µg/mL
THP-1 cell
  IC50: 50 µM
[7]
  MIC: 0.003 µg/mL (≈ 0.00557 µM)
[8]
  Stability: High
[8]; human
  Clint Hep In Vivo Extpl: 0.0 mL/min
  Clint In Vitro: 0.0 mL min^-1 gprot^-1
  Clint In Vivo Extpl: 0.0 mL/min
  T1/2: Stable
CYP 1A2
  IC50: > 10 µM
hERG
  IC50: > 30 µM
Escherichia coli
  MIC: >128 µg/mL
Enterococcus faecium
  MIC: >128 µg/mL
[9]
  MICs: > 128 µg/mL
CYP 2D6
  IC50: > 10 µM
[10]
  bioavailability: 38.1%
[10]; iv, 2 mg/kg
  MRT(0-t): 14.7 h
  MRT(0-∞): 22.3 h
  t 1/2z: 17.7 h
[10]; po, 10 mg/kg
  MRT(0-t): 20.2 h
  MRT(0-∞): 52.0 h
  t 1/2z: 35.6 h
[11]
  Stability: High
[11]; dog
  Clint Hep In Vivo Extpl: 17.1 mL/min
  Clint In Vitro: 3.5 mL min^-1 gprot^-1
  Clint In Vivo Extpl: 19.0 mL/min
  T1/2: 9.97 h
[12]
  Stability: High
[12]; rat
  Clint Hep In Vivo Extpl: 5.4 mL/min
  Clint In Vitro: 16.5 mL min^-1 gprot^-1
  Clint In Vivo Extpl: 7.4 mL/min
  T1/2: 2.13 h
CYP 2C9
  IC50: > 10 µM
